Test results as given in PubChem BioAssay AID330 (DTP/NCI, 2004).
Values joined by “and” are separate entries in the source; they are usually repeats but may differ in a detail not shown here. Identical values can stand only once. Inconclusive results and toxic doses are left out.

System: P388 leukemia ip, CD2F1 mice, survival T/C
Experiment: NCI In Vivo Anticancer Drug Screen. Data for tumor model P388 Leukemia (intraperitoneal) in CD2F1 (CDF1) mice
Conditions: endpoint: median survival time, higher = longer survival
How it was run: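 Mice carrying the transplanted tumor received test compound or vehicle. Survival was recorded in each group, and the value is the treated-group measurement divided by that of the vehicle-treated control group.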

For N[C@@H](Cc1ccc(N(CCCl)CCCl)cc1)C(=O)O, the T/C (dose: 0.25 mg/kg/injection, schedule: Q01DX009 (ip), vehicle: saline) was 152 % of control, the T/C (dose: 0.25 mg/kg/injection, schedule: Q01DX009 (ip), vehicle: suspension in saline) was 117 % of control and the T/C (dose: 0.25 mg/kg/injection, schedule: Q03HX008 (ip), vehicle: saline) was 165 % of control. The T/C (dose: 0.38 mg/kg/injection, schedule: Q01DX005 (ip), vehicle: saline) was 154 % of control, the T/C (dose: 0.5 mg/kg/injection, schedule: Q01DX005 (ip), vehicle: saline) was 153 % of control and 189 % of control and the T/C (dose: 0.5 mg/kg/injection, schedule: Q01DX009 (ip), vehicle: saline) was 163 % of control and 170 % of control. For the same compound, the T/C (dose: 0.5 mg/kg/injection, schedule: Q01DX009 (ip), vehicle: suspension in saline) was 123 % of control, the T/C (dose: 0.5 mg/kg/injection, schedule: Q03HX008 (ip), vehicle: saline) was 190 % of control and the T/C (dose: 0.5 mg/kg/injection, schedule: Q04DX003 (ip), vehicle: water) was 150 % of control. For the same compound, the T/C (dose: 0.54 mg/kg/injection, schedule: Q01DX009 (ip), vehicle: saline) was 175 % of control, the T/C (dose: 0.75 mg/kg/injection, schedule: Q01DX005 (ip), vehicle: saline) was 172 % of control and the T/C (dose: 0.75 mg/kg/injection, schedule: Q04DX003 (ip), vehicle: saline) was 150 % of control. The T/C (dose: 0.9 mg/kg/injection, schedule: Q01DX009 (ip), vehicle: saline) was 193 % of control, the T/C (dose: 1.0 mg/kg/injection, schedule: Q01DX005 (ip), vehicle: water) was 167 % of control and the T/C (dose: 1.0 mg/kg/injection, schedule: Q01DX009 (ip), vehicle: Klucel (hydroxypropylcellulose) (HPC)) was 222 % of control. The T/C (dose: 1.0 mg/kg/injection, schedule: Q01DX009 (ip), vehicle: saline) was 193 % of control and 209 % of control and 227 % of control, the T/C (dose: 1.0 mg/kg/injection, schedule: Q01DX009 (ip), vehicle: suspension in saline) was 163 % of control and the T/C (dose: 1.0 mg/kg/injection, schedule: Q04DX003 (ip), vehicle: saline) was 176 % of control. The T/C (dose: 1.0 mg/kg/injection, schedule: Q04DX003 (ip), vehicle: water) was 162 % of control, the T/C (dose: 1.25 mg/kg/injection, schedule: Q04DX003 (ip), vehicle: saline) was 176 % of control and the T/C (dose: 1.25 mg/kg/injection, schedule: Q04DX003 (ip), vehicle: water) was 158 % of control and 200 % of control. The T/C (dose: 1.25 mg/kg/injection, schedule: Q04DX003 (iv), vehicle: saline) was 124 % of control, the T/C (dose: 1.5 mg/kg/injection, schedule: Q01DX005 (ip), vehicle: saline) was 203 % of control and the T/C (dose: 1.5 mg/kg/injection, schedule: Q01DX009 (ip), vehicle: Klucel (hydroxypropylcellulose) (HPC)) was 101 % of control. The T/C (dose: 1.5 mg/kg/injection, schedule: Q01DX009 (ip), vehicle: saline) was 227 % of control, the T/C (dose: 1.5 mg/kg/injection, schedule: Q04DX003 (ip), vehicle: Klucel (hydroxypropylcellulose) (HPC)) was 225 % of control and the T/C (dose: 1.5 mg/kg/injection, schedule: Q04DX003 (ip), vehicle: saline) was 174 % of control. The T/C (dose: 1.62 mg/kg/injection, schedule: Q04DX003 (ip), vehicle: saline) was 180 % of control, the T/C (dose: 1.62 mg/kg/injection, schedule: Q04DX003 (ip), vehicle: water) was 191 % of control and the T/C (dose: 1.7 mg/kg/injection, schedule: Q04DX003 (ip), vehicle: saline) was 174 % of control. For the same compound, the T/C (dose: 1.94 mg/kg/injection, schedule: Q04DX002 (ip), vehicle: saline) was 190 % of control and 192 % of control and 206 % of control, the T/C (dose: 1.94 mg/kg/injection, schedule: Q04DX003 (ip), vehicle: saline) was 186 % of control and the T/C (dose: 2.0 mg/kg/injection, schedule: Q01DX009 (ip), vehicle: saline) was 236 % of control and 254 % of control. The T/C (dose: 2.0 mg/kg/injection, schedule: Q01DX009 (ip), vehicle: suspension in saline) was 174 % of control and 221 % of control, the T/C (dose: 2.0 mg/kg/injection, schedule: Q04DX003 (ip), vehicle: saline) was 196 % of control and 199 % of control and 200 % of control and the T/C (dose: 2.0 mg/kg/injection, schedule: Q04DX003 (ip), vehicle: water) was 189 % of control. For the same compound, the T/C (dose: 2.2 mg/kg/injection, schedule: Q01DX005 (ip), vehicle: saline) was 165 % of control and 203 % of control, the T/C (dose: 2.5 mg/kg/injection, schedule: Q01DX001 (ip), vehicle: Klucel (hydroxypropylcellulose) (HPC)) was 207 % of control and the T/C (dose: 2.7 mg/kg/injection, schedule: Q04DX003 (ip), vehicle: saline) was 194 % of control and 250 % of control. The T/C (dose: 2.7 mg/kg/injection, schedule: Q04DX003 (ip), vehicle: water) was 233 % of control, the T/C (dose: 3.0 mg/kg/injection, schedule: Q04DX003 (ip), vehicle: Klucel (hydroxypropylcellulose) (HPC)) was 119 % of control and the T/C (dose: 3.0 mg/kg/injection, schedule: Q04DX003 (ip), vehicle: saline) was 196 % of control. For the same compound, the T/C (dose: 3.24 mg/kg/injection, schedule: Q04DX002 (ip), vehicle: saline) was 202 % of control and 213 % of control and 243 % of control, the T/C (dose: 3.24 mg/kg/injection, schedule: Q04DX003 (ip), vehicle: saline) was 220 % of control and 227 % of control and the T/C (dose: 3.6 mg/kg/injection, schedule: Q01DX005 (ip), vehicle: saline) was 165 % of control and 233 % of control. The T/C (dose: 3.7 mg/kg/injection, schedule: Q04DX003 (ip), vehicle: saline) was 220 % of control, the T/C (dose: 3.75 mg/kg/injection, schedule: Q04DX003 (ip), vehicle: distilled water + Tween-80) was 215 % of control and the T/C (dose: 4.0 mg/kg/injection, schedule: Q01DX001 (ip), vehicle: suspension in saline) was 183 % of control. For the same compound, the T/C (dose: 4.0 mg/kg/injection, schedule: Q01DX009 (ip), vehicle: Klucel (hydroxypropylcellulose) (HPC)) was 161 % of control, the T/C (dose: 4.0 mg/kg/injection, schedule: Q01DX009 (ip), vehicle: saline) was 166 % of control and the T/C (dose: 4.0 mg/kg/injection, schedule: Q01DX009 (ip), vehicle: suspension in saline) was 169 % of control and 238 % of control. For the same compound, the T/C (dose: 4.0 mg/kg/injection, schedule: Q04DX003 (ip), vehicle: saline) was 199 % of control and 211 % of control and 240 % of control, the T/C (dose: 4.0 mg/kg/injection, schedule: Q04DX003 (ip), vehicle: water) was 225 % of control and the T/C (dose: 4.5 mg/kg/injection, schedule: Q04DX003 (ip), vehicle: saline) was 240 % of control. For the same compound, the T/C (dose: 5.0 mg/kg/injection, schedule: Q01DX001 (ip), vehicle: saline) was 208 % of control, the T/C (dose: 5.0 mg/kg/injection, schedule: Q04DX003 (iv), vehicle: saline) was 194 % of control and the T/C (dose: 5.4 mg/kg/injection, schedule: Q04DX002 (ip), vehicle: saline) was 254 % of control. The T/C (dose: 6.0 mg/kg/injection, schedule: Q01DX005 (ip), vehicle: saline) was 226 % of control, the T/C (dose: 6.0 mg/kg/injection, schedule: Q04DX003 (ip), vehicle: Klucel (hydroxypropylcellulose) (HPC)) was 117 % of control and the T/C (dose: 6.0 mg/kg/injection, schedule: Q04DX003 (ip), vehicle: saline) was 218 % of control. For the same compound, the T/C (dose: 6.7 mg/kg/injection, schedule: Q01DX001 (ip), vehicle: saline) was 185 % of control, the T/C (dose: 7.3 mg/kg/injection, schedule: Q04DX003 (ip), vehicle: saline) was 239 % of control and the T/C (dose: 8.0 mg/kg/injection, schedule: Q01DX009 (ip), vehicle: Klucel (hydroxypropylcellulose) (HPC)) was 109 % of control. For the same compound, the T/C (dose: 8.0 mg/kg/injection, schedule: Q01DX009 (ip), vehicle: saline) was 99 % of control and 100 % of control, the T/C (dose: 8.0 mg/kg/injection, schedule: Q01DX009 (ip), vehicle: suspension in saline) was 104 % of control and 108 % of control and the T/C (dose: 10.0 mg/kg/injection, schedule: Q01DX001 (iv), vehicle: saline) was 185 % of control. For the same compound, the T/C (dose: 10.0 mg/kg/injection, schedule: Q04DX003 (iv), vehicle: saline) was 100 % of control, the T/C (dose: 12.5 mg/kg/injection, schedule: Q04DX003 (ip), vehicle: saline) was 152 % of control and the T/C (dose: 12.6 mg/kg/injection, schedule: Q04DX003 (ip), vehicle: saline) was 239 % of control. For the same compound, the T/C (dose: 15.0 mg/kg/injection, schedule: Q04DX002 (ip), vehicle: saline) was 101 % of control and 109 % of control, the T/C (dose: 15.0 mg/kg/injection, schedule: Q04DX003 (ip), vehicle: saline) was 108 % of control and the T/C (dose: 16.0 mg/kg/injection, schedule: Q04DX003 (ip), vehicle: water) was 115 % of control. For the same compound, the T/C (dose: 17.5 mg/kg/injection, schedule: Q01DX001 (ip), vehicle: saline) was 243 % of control, the T/C (dose: 18.9 mg/kg/injection, schedule: Q04DX003 (ip), vehicle: saline) was 107 % of control and the T/C (dose: 24.0 mg/kg/injection, schedule: Q04DX003 (ip), vehicle: saline) was 107 % of control.
COC(=O)Cc1ccccc1-n1nccc1S(C)=O (stereo unspecified) was tested, and the T/C (dose: 60.0 mg/kg/injection, schedule: Q01DX005 (ip), vehicle: saline with Tween-80) was 109 % of control, the T/C (dose: 120.0 mg/kg/injection, schedule: Q01DX005 (ip), vehicle: saline with Tween-80) was 104 % of control and the T/C (dose: 240.0 mg/kg/injection, schedule: Q01DX005 (ip), vehicle: saline with Tween-80) was 106 % of control.
CC(C)(C)/C=C/N=NNc1ccccn1 was tested, and the T/C (dose: 100.0 mg/kg/injection, schedule: Q01DX001 (ip), vehicle: Klucel (hydroxypropylcellulose) (HPC)) was 97 % of control, the T/C (dose: 200.0 mg/kg/injection, schedule: Q01DX001 (ip), vehicle: Klucel (hydroxypropylcellulose) (HPC)) was 92 % of control and the T/C (dose: 400.0 mg/kg/injection, schedule: Q01DX001 (ip), vehicle: Klucel (hydroxypropylcellulose) (HPC)) was 94 % of control.
